# Measurements from article PMC4620497 (Scientific Reports, 2015).
# Tests used:
# [1] = target: T1, CHEK1 (Homo sapiens, UniProt O14757); parameters: method as in earlier work; conditions: Table S1; cited from earlier work
# T1 construct: purchased DiscoveRx KINOMEscan (Ambit Biosciences)
# T1 sequence (O14757 1-476): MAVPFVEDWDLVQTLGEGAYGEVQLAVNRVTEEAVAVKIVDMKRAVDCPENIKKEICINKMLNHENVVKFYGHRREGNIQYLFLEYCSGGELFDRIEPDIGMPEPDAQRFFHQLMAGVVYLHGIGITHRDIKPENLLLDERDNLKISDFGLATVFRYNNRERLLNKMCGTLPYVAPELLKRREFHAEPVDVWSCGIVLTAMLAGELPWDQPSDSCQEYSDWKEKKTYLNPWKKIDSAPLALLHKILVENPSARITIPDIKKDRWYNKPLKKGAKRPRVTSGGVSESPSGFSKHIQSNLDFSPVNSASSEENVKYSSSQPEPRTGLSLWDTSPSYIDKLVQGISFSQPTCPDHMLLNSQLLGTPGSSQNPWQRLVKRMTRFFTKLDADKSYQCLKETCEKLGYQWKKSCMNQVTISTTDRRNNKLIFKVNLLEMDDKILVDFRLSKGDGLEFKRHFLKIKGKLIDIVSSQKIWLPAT
# [2] = target: T2, DMPK (Homo sapiens, UniProt Q09013); parameters: method as in earlier work; conditions: Table S1; cited from earlier work
# T2 construct: purchased DiscoveRx KINOMEscan (Ambit Biosciences)
# T2 sequence (Q09013 1-629): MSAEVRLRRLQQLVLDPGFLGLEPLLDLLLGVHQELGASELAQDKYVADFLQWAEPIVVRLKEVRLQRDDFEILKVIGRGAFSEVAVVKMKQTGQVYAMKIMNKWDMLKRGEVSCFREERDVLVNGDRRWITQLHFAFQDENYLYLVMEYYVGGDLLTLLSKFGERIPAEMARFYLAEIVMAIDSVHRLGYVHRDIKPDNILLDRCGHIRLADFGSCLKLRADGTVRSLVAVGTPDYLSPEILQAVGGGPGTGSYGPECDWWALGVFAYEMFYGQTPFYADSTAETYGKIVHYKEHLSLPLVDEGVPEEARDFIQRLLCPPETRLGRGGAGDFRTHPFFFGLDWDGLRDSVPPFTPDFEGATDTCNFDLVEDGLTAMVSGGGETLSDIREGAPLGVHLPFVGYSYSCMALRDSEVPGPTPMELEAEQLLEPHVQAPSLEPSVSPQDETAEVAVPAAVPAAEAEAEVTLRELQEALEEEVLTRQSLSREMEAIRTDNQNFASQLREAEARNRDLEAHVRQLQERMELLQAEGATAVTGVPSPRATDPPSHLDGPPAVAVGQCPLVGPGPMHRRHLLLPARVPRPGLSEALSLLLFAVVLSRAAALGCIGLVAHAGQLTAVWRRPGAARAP
# [3] = target: T3, IGF1R (Homo sapiens, UniProt P08069); parameters: method as in earlier work; conditions: Table S1; cited from earlier work
# T3 construct: DNA tag (qPCR read-out); purchased Ambit Biosciences (KINOMEscan service)
# [4] = target: T4, AURKC (Homo sapiens, UniProt Q9UQB9); test: KINOMEscan panel screen; assay type: binding; conditions: read-out: Percent Control(%)
# T4 construct: purchased DiscoveRx KINOMEscan (Ambit Biosciences)
# [5] = target: T5, BLK (Homo sapiens, UniProt P51451); test: KINOMEscan panel screen; assay type: binding; conditions: read-out: Percent Control(%)
# T5 construct: purchased DiscoveRx KINOMEscan (Ambit Biosciences)
# [6] = target: BTK (Homo sapiens, UniProt Q06187); test: KINOMEscan panel screen; assay type: binding; conditions: read-out: Percent Control(%)
# [7] = target: T6, CAMK2G (Homo sapiens, UniProt Q13555); test: KINOMEscan panel screen; assay type: binding; conditions: read-out: Percent Control(%)
# T6 construct: purchased DiscoveRx KINOMEscan (Ambit Biosciences)
# [8] = target: T7, CSNK1G3 (Homo sapiens, UniProt Q9Y6M4); test: KINOMEscan panel screen; assay type: binding; conditions: read-out: Percent Control(%)
# T7 construct: purchased DiscoveRx KINOMEscan (Ambit Biosciences)
# [9] = target: T8, DCAMKL3 (Homo sapiens, UniProt Q9C098); test: KINOMEscan panel screen; assay type: binding; conditions: read-out: Percent Control(%)
# T8 construct: purchased DiscoveRx KINOMEscan (Ambit Biosciences)
# [10] = target: T9, FLT3 (Homo sapiens, UniProt P36888); test: KINOMEscan panel screen; assay type: binding; conditions: read-out: Percent Control(%)
# T9 construct: purchased DiscoveRx KINOMEscan (Ambit Biosciences)
# [11] = target: T10, IRAK4 (Homo sapiens, UniProt Q9NWZ3); test: KINOMEscan panel screen; assay type: binding; conditions: read-out: Percent Control(%)
# T10 construct: purchased DiscoveRx KINOMEscan (Ambit Biosciences)
# [12] = target: T11, KIT(D816V) (Homo sapiens, UniProt P10721, D816V); test: KINOMEscan panel screen; assay type: binding; conditions: read-out: Percent Control(%)
# T11 construct: purchased DiscoveRx KINOMEscan (Ambit Biosciences)
# [13] = target: T12, MAPKAPK5 (Homo sapiens, UniProt Q8IW41); test: KINOMEscan panel screen; assay type: binding; conditions: read-out: Percent Control(%)
# T12 construct: purchased DiscoveRx KINOMEscan (Ambit Biosciences)
# [14] = target: T13, MERTK (Homo sapiens, UniProt Q12866); test: KINOMEscan panel screen; assay type: binding; conditions: read-out: Percent Control(%)
# T13 construct: purchased DiscoveRx KINOMEscan (Ambit Biosciences)
# [15] = target: T14, MST2 (Homo sapiens, UniProt Q13188); test: KINOMEscan panel screen; assay type: binding; conditions: read-out: Percent Control(%)
# T14 construct: purchased DiscoveRx KINOMEscan (Ambit Biosciences)
# [16] = target: T15, MYLK2 (Homo sapiens, UniProt Q9H1R3); test: KINOMEscan panel screen; assay type: binding; conditions: read-out: Percent Control(%)
# T15 construct: purchased DiscoveRx KINOMEscan (Ambit Biosciences)
# [17] = target: T16, PDPK1 (Homo sapiens, UniProt O15530); test: KINOMEscan panel screen; assay type: binding; conditions: read-out: Percent Control(%)
# T16 construct: purchased DiscoveRx KINOMEscan (Ambit Biosciences)
# [18] = target: T17, PLK4 (Homo sapiens, UniProt O00444); test: KINOMEscan panel screen; assay type: binding; conditions: read-out: Percent Control(%)
# T17 construct: purchased DiscoveRx KINOMEscan (Ambit Biosciences)
# [19] = target: T18, ROCK2 (Homo sapiens, UniProt O75116); test: KINOMEscan panel screen; assay type: binding; conditions: read-out: Percent Control(%)
# T18 construct: purchased DiscoveRx KINOMEscan (Ambit Biosciences)
# [20] = target: T19, TAOK2 (Homo sapiens, UniProt Q9UL54); test: KINOMEscan panel screen; assay type: binding; conditions: read-out: Percent Control(%)
# T19 construct: purchased DiscoveRx KINOMEscan (Ambit Biosciences)
# [21] = target: T20, TIE2 (Homo sapiens, UniProt Q02763); test: KINOMEscan panel screen; assay type: binding; conditions: read-out: Percent Control(%)
# T20 construct: purchased DiscoveRx KINOMEscan (Ambit Biosciences)
# [22] = target: T21, TLK2 (Homo sapiens, UniProt Q86UE8); test: KINOMEscan panel screen; assay type: binding; conditions: read-out: Percent Control(%)
# T21 construct: purchased DiscoveRx KINOMEscan (Ambit Biosciences)
# [23] = target: T22, WEE2 (Homo sapiens, UniProt P0C1S8); test: KINOMEscan panel screen; assay type: binding; conditions: read-out: Percent Control(%)
# T22 construct: purchased DiscoveRx KINOMEscan (Ambit Biosciences)
# [24] = target: T23, YANK1 (Homo sapiens, UniProt Q8WU08); test: KINOMEscan panel screen; assay type: binding; conditions: read-out: Percent Control(%)
# T23 construct: purchased DiscoveRx KINOMEscan (Ambit Biosciences)
# [25] = target: LCK (Homo sapiens, UniProt P06239); test: KINOMEscan kinase binding assay (Kd)
# [26] = target: ROCK1 (Homo sapiens, UniProt Q13464); test: KINOMEscan kinase binding assay (Kd)
# [27] = tested on: SW620; test: MTT cell viability assay; conditions: Homo sapiens, SW-620, 72 h
# [28] = target: FLT3-D835Y (Homo sapiens, UniProt P36888, D835Y); test: KINOMEscan panel screen; assay type: binding; parameters: purchased DiscoveRx KINOMEscan (Ambit Biosciences); conditions: read-out: Percent Control(%)
# T7 sequence (Q9Y6M4 whole entry): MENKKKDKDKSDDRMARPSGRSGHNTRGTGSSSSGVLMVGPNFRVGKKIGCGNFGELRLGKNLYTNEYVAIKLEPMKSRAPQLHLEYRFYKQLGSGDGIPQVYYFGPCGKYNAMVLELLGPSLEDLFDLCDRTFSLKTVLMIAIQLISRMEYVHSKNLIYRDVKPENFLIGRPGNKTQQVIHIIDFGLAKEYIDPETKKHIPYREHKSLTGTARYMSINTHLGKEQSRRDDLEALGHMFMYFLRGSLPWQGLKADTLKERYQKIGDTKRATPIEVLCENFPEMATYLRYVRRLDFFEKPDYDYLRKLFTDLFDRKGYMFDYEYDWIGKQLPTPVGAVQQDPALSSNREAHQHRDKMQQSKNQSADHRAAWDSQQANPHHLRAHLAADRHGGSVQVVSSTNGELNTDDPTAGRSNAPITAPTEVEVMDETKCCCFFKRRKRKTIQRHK
# T4 sequence (Q9UQB9 whole entry): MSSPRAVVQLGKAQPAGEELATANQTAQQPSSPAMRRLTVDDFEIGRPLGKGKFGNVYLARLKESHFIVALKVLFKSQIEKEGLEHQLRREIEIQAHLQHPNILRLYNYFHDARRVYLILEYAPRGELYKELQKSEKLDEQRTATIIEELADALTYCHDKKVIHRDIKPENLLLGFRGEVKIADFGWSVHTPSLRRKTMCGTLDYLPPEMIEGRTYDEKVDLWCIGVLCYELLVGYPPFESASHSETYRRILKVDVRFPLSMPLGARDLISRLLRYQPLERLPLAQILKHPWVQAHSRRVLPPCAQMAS
# LCK, sequence (P06239 whole entry): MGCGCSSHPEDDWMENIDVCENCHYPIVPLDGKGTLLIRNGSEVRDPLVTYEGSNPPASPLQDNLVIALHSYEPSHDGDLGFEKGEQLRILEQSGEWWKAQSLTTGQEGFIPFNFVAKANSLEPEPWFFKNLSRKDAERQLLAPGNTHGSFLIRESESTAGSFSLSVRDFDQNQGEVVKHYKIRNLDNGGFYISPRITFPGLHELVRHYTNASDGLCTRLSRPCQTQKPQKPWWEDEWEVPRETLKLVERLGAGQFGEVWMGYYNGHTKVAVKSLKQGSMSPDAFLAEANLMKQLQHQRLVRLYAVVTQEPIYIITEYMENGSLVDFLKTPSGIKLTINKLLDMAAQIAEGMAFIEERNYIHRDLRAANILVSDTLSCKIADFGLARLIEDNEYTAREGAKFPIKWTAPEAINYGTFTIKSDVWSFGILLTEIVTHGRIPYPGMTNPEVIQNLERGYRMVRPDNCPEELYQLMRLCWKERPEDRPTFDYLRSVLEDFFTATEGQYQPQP
# T21 sequence (Q86UE8 whole entry): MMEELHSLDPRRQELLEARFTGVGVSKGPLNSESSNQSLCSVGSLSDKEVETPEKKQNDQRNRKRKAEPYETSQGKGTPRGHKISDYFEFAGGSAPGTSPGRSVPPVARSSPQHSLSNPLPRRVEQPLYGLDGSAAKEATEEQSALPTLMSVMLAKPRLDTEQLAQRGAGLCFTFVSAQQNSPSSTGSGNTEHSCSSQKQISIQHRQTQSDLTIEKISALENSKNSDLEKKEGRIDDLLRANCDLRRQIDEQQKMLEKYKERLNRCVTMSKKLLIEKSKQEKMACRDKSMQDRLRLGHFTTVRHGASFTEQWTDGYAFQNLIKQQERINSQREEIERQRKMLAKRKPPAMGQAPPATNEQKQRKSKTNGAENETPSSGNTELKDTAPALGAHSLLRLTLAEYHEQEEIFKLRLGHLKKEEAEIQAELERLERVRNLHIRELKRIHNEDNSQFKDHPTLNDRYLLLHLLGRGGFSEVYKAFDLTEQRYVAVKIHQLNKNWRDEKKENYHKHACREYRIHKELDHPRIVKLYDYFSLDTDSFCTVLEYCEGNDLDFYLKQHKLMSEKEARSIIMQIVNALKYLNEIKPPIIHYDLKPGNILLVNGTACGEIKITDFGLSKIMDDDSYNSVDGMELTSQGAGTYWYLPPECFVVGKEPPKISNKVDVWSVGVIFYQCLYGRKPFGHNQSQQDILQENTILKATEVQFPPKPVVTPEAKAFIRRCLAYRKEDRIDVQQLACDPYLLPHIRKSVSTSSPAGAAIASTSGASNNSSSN
# T19 sequence (Q9UL54 whole entry): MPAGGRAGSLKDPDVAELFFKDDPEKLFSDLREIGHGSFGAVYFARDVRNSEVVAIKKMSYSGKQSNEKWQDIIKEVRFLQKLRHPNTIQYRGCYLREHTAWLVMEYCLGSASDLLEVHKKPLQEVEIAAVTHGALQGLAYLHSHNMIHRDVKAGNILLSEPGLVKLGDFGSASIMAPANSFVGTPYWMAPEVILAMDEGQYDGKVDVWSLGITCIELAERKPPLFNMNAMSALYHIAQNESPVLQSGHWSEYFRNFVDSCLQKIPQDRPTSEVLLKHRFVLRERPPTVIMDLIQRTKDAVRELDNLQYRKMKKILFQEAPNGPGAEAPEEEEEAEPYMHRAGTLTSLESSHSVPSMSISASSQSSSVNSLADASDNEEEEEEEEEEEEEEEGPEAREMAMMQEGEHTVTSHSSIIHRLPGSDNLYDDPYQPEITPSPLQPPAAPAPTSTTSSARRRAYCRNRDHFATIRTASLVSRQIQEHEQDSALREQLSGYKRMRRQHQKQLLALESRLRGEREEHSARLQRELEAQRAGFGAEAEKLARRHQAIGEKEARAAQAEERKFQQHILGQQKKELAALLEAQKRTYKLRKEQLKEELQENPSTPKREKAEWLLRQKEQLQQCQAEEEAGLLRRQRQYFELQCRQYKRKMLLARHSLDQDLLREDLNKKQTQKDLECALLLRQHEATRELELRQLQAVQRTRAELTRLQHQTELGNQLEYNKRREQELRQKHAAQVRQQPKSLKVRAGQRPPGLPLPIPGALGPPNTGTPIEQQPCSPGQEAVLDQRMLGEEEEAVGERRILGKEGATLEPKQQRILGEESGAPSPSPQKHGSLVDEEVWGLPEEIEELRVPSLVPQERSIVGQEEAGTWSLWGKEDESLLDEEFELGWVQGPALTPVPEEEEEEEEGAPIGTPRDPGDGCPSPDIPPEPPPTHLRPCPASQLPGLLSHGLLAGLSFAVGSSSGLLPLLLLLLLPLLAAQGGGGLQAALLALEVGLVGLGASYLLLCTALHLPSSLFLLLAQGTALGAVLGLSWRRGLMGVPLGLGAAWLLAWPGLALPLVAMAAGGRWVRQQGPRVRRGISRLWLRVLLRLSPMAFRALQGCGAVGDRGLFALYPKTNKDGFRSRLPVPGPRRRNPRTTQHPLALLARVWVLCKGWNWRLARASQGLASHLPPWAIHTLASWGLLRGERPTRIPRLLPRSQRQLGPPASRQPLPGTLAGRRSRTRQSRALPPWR
# T5 sequence (P51451 whole entry): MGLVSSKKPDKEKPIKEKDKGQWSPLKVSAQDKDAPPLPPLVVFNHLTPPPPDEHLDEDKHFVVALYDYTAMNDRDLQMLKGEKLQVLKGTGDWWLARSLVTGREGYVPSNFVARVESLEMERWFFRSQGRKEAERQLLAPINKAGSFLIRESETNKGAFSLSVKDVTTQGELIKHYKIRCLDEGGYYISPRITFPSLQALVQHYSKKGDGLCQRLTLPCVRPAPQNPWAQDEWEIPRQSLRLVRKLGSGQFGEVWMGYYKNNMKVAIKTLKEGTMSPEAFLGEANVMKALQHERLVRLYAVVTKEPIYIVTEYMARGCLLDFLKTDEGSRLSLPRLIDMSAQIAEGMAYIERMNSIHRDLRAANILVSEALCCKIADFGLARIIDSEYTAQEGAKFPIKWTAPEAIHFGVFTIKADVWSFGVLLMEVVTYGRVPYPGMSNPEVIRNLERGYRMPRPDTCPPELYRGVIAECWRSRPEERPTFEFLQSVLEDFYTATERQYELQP
# T14 sequence (Q13188 whole entry): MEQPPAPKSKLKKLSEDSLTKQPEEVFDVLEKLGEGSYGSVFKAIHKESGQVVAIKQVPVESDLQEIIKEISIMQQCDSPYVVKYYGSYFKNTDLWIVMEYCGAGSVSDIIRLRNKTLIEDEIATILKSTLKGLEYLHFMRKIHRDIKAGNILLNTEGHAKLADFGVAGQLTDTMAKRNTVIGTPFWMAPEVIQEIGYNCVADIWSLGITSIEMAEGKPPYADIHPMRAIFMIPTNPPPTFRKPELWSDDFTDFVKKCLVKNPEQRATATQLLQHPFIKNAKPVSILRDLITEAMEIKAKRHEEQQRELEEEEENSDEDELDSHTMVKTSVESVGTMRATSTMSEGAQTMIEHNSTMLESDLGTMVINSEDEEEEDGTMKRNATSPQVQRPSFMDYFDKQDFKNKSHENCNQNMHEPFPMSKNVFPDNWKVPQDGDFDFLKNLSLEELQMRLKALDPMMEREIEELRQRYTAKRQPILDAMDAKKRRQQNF
# T6 sequence (Q13555 whole entry): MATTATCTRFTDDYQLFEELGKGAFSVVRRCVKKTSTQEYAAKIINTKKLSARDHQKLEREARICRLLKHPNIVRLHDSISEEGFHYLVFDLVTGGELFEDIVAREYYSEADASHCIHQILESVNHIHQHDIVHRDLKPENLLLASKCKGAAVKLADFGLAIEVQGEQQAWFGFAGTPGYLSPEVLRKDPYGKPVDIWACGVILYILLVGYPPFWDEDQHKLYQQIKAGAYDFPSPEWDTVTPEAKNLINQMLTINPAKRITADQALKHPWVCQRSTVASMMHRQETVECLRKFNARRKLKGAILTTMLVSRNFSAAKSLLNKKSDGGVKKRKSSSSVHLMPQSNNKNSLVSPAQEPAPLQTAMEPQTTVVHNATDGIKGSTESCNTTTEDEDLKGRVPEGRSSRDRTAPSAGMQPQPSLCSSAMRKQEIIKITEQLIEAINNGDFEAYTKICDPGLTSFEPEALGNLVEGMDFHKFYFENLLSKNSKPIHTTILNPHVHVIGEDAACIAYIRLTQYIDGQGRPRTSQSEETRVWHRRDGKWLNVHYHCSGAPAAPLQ
structure (smiles),measurement,setting,value
"O=C(Nc1ccc(Oc2ncnc3[nH]ncc23)cc1)Nc1ccc(Cl)c(C(F)(F)F)c1 [Compound 1, 1-(4-(1H-pyrazolo[3,4-d]pyrimidin-4-yloxy)phenyl)-3-(4-chloro-3-(trifluoromethyl)phenyl)urea]",IC50,[1],> 10 µM
same,IC50,[2],> 10 µM
same,IC50,[3],> 10 µM
"CC(C)(C)c1cc(NC(=O)Nc2ccc(Oc3ncnc4[nH]ncc34)c(F)c2)no1 [SKLB-677, 1-(4-(1H-pyrazolo[3,4-d]pyrimidin-4-yloxy)-3-fluorophenyl)-3-(5-tert-butylisoxazol-3-yl)urea]",remaining binding at 10 µM,[4],1.4%
same,remaining binding at 10 µM,[5],0.95%
same,remaining binding at 10 µM,[6],100%
same,remaining binding at 10 µM,[7],66%
same,remaining binding at 10 µM,[8],70%
same,remaining binding at 10 µM,[9],81%
same,remaining binding at 10 µM,[10],2%
same,remaining binding at 10 µM,[11],100%
same,remaining binding at 10 µM,[12],0.2%
same,remaining binding at 10 µM,[13],97%
same,remaining binding at 10 µM,[14],0%
same,remaining binding at 10 µM,[15],87%
same,remaining binding at 10 µM,[16],72%
same,remaining binding at 10 µM,[17],100%
same,remaining binding at 10 µM,[18],68%
same,remaining binding at 10 µM,[19],66%
same,remaining binding at 10 µM,[20],0.35%
same,remaining binding at 10 µM,[21],0.2%
same,remaining binding at 10 µM,[22],64%
same,remaining binding at 10 µM,[23],78%
same,remaining binding at 10 µM,[24],88%
same,Kd,[25],0.13 µM
same,Kd,[26],> 10 µM
same,IC50,[27],> 10 µM
same,remaining binding at 10 µM,[28],3.2%
